For 23 compounds, IC50 results are on record in patent EP2951180B1, “2,6,7,8 SUBSTITUTED PURINES AS HDM2 INHIBITORS” (Merck Sharp & Dohme Corp., priority 2013, dated 2014).

In general, IC50 refers to the point on the concentration scale where inhibition reaches its midpoint.

The target of the test is T1, HDM2 (Homo sapiens, UniProt Q00987).
T1 construct: Thioredoxin (N); made in house; host or cells: E. coli strain BL21(DE3)Rosetta
T1 sequence (Q00987 17-125): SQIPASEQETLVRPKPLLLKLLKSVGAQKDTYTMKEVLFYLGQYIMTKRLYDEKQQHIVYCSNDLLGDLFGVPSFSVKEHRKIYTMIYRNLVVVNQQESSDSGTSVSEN
Description: HDM2 FRET assay (inhibition of binding of FITC labeled p53-pocket peptide to HDM2). To be noted: 0.5 nM HDM2 (residues 17 to 125), 3nM peptide, two hour incubation at room temperature; read-out: FRET IC50. The method in brief: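 Final: 0.5 nM His-HDM2, 3 nM FITC peptide, 0.25 nM Tb anti-His Ab; PBS, 0.01% BSA, 0.01% Tween-20; 0.1% DMSO.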
As for `C[C@H]1CC[C@H](Cn2c(N3CCC[C@H]3CF)nc3nc(-c4n[nH]c(=O)o4)nc(-c4cncc(Cl)c4)c32)CC1` [Example 16.104, 5-{6-(5-chloropyridin-3-yl)-8-[(2S)-2-(fluoromethyl)pyrrolidin-1-yl]-7-[(trans-4-methylcyclohexyl)methyl]-7H-purin-2-yl}-1,3,4-oxadiazol-2(3H)-one], the IC50 was 3.91 nM.

`C[C@@H]1COC[C@@H](C)N1c1nc2nc(-c3n[nH]c(=O)o3)nc(-c3cncc(Cl)c3)c2n1C[C@H]1CC[C@H](C)CC1` [Example 16.105, 5-{6-(5-chloropyridin-3-yl)-8-[(3R,5R)-3,5-dimethylmorpholin-4-yl]-7-[(trans-4-methylcyclohexyl)methyl]-7H-purin-2-yl}-1,3,4-oxadiazol-2(3H)-one]: the IC50 was 11 nM.

`C[C@H]1CC[C@H](Cn2c(N3CCC[C@H]3C(F)(F)F)nc3nc(-c4n[nH]c(=O)o4)nc(-c4cncc(Cl)c4)c32)CC1` [Example 16.106, 5-{6-(5-chloropyridin-3-yl)-7-[(trans-4-methylcyclohexyl)methyl]-8-[(2S)-2-(trifluoromethyl)pyrrolidin-1-yl]-7H-purin-2-yl} -1,3,4-oxadiazol-2(3H)-one]: the IC50 was found to be 0.825 nM.

In the case of `C[C@H]1CC[C@H](Cn2c(N3CCOC[C@H]3c3ccccc3)nc3nc(-c4noc(=O)[nH]4)nc(-c4cc(Cl)nc(Cl)c4)c32)CC1` [Example 16.107, 3-{6-(2,6-dichloropyridin-4-yl)-7-[(trans-4-methylcyclohexyl)methyl]-8-[(3R)-3-phenylmorpholin-4-yl]-7H-purin-2-yl}-1,2,4-oxadiazol-5(4H)-one], the IC50 amounted to 1.66 nM.

Consider `C[C@H]1CC[C@H](Cn2c(N3CCOC[C@H]3c3ccccc3)nc3nc(-c4noc(=O)[nH]4)nc(-c4cc(Cl)cnc4F)c32)CC1` [Example 16.108, 3-{6-(5-chloro-2-fluoropyridin-3-yl)-7-[(trans-4-methylcyclohexyl)methyl]-8-[(3R)-3-phenylmorpholin-4-yl]-7H-purin-2-yl}-1,2,4-oxadiazol-5(4H)-one], for which the IC50 came to 1.16 nM.

For `COc1cc(-c2nc(-c3noc(=O)[nH]3)nc3nc(N4CCOC[C@H]4c4ccccc4)n(C[C@H]4CC[C@H](C)CC4)c23)cc(Cl)n1` [Example 16.109, 3-{6-(2-chloro-6-methoxypyridin-4-yl)-7-[(trans-4-methylcyclohexyl)methyl]-8-[(3R)-3-phenylmorpholin-4-yl]-7H-purin-2-yl}-1,2,4-oxadiazol-5(4H)-one], the IC50 is 1.21 nM.

Turning to `C[C@H]1CC[C@H](Cn2c(N3CCOC[C@H]3c3ccccc3)nc3nc(-c4noc(=O)[nH]4)nc(-c4ccnc(Cl)c4)c32)CC1` [Example 16.110, 3-{6-(2-chloropyridin-4-yl)-7-[(trans-4-methylcyclohexyl)methyl]-8-[(3R)-3-phenylmorpholin-4-yl]-7H-purin-2-yl}-1,2,4-oxadiazol-5(4H)-one], the IC50 amounted to 1.14 nM.

Consider `CS(=O)(=O)c1cc(Cl)cc(-c2nc(-c3noc(=O)[nH]3)nc3nc(N4CCOC[C@H]4c4ccccc4)n(C[C@H]4CC[C@H](C)CC4)c23)c1` [Example 16.111, 3-{6-[3-chloro-5-(methylsulfonyl)phenyl]-7-[(trans-4-methylcyclohexyl)methyl]-8-[(3R)-3-phenylmorpholin-4-yl]-7H-purin-2-yl}-1,2,4-oxadiazol-5(4H)-one], for which the IC50 was determined as 2.9 nM.

As for `Cc1nc(-c2cccc(-c3nc(-c4noc(=O)[nH]4)nc4nc(N5CCOC[C@H]5c5ccccc5)n(C[C@H]5CC[C@H](C)CC5)c34)c2)no1` [Example 16.112, 3-{7-[(trans-4-methylcyclohexyl)methyl]-6-[3-(5-methyl-1,2,4-oxadiazol-3-yl)phenyl]-8-[(3R)-3-phenylmorpholin-4-yl]-7H-purin-2-yl}-1,2,4-oxadiazol-5(4H)-one], the IC50 amounted to 18 nM.

As to `C[C@H]1CC[C@H](Cn2c(N3CCOC[C@H]3c3ccccc3)nc3nc(-c4noc(=O)[nH]4)nc(-c4cc(Cl)cc(N5CCCC5)c4)c32)CC1` [Example 16.113, 3-{6-(3-chloro-5-pyrrolidin-1-ylphenyl)-7-[(trans-4-methylcyclohexyl)methyl]-8-[(3R)-3-phenylmorpholin-4-yl]-7H-purin-2-yl}-1,2,4-oxadiazol-5(4H)-one], the IC50 is 14.9 nM.

With `Cc1cc(Cl)cc(-c2nc(-c3noc(=O)[nH]3)nc3nc(N4CCOC[C@H]4c4ccccc4)n(C[C@H]4CC[C@H](C)CC4)c23)c1` [Example 16.114, 3-{6-(3-chloro-5-methylphenyl)-7-[(trans-4-methylcyclohexyl)methyl]-8-[(3R)-3-phenylmorpholin-4-yl]-7H-purin-2-yl}-1,2,4-oxadiazol-5(4H)-one], the concentration for half-maximal inhibition (IC50) worked out at 1.56 nM.

As for `Cc1cncc(-c2nc(-c3noc(=O)[nH]3)nc3nc(N4CCOC[C@H]4c4ccccc4)n(C[C@H]4CC[C@H](C)CC4)c23)c1` [Example 16.115, 3-{7-[(trans-4-methylcyclohexyl)methyl]-6-(5-methylpyridin-3-yl)-8-[(3R)-3-phenylmorpholin-4-yl]-7H-purin-2-yl}-1,2,4-oxadiazol-5(4H)-one], the IC50 was 3.92 nM.

As for `Cc1noc([C@@H]2COCCN2c2nc3nc(-c4noc(=O)[nH]4)nc(-c4cccc(Cl)c4)c3n2C[C@H]2CC[C@H](C)CC2)n1` [Example 16.116, 3-{6-(3-chlorophenyl)-7-[(trans-4-methylcyclohexyl)methyl]-8-[(3S)-3-(3-methyl-1,2,4-oxadiazol-5-yl)morpholin-4-yl]-7H-purin-2-yl}-1,2,4-oxadiazol-5(4H)-one], the IC50 came out at 7.26 nM.

For `C[C@H]1CC[C@H](Cn2c(N3CCOC[C@H]3C(N)=O)nc3nc(-c4noc(=O)[nH]4)nc(-c4cccc(Cl)c4)c32)CC1` [Example 16.117, (3 S)-4-[6-(3-chlorophenyl)-7-[(trans-4-methylcyclohexyl)methyl]-2-(5-oxo-4,5-dihydro-1,2,4-oxadiazol-3-yl)-7H-purin-8-yl]morpholine-3-carboxamide], the IC50 was 105 nM.

Consider `Cc1csc([C@@H]2COCCN2c2nc3nc(-c4noc(=O)[nH]4)nc(-c4cccc(Cl)c4)c3n2C[C@H]2CC[C@H](C)CC2)n1` [Example 16.120, 3-{6-(3-chlorophenyl)-7-[(trans-4-methylcyclohexyl)methyl]-8-[(3S)-3-(4-methyl-1,3-thiazol-2-yl)morpholin-4-yl]-7H-purin-2-yl}-1,2,4-oxadiazol-5(4H)-one], for which the IC50 amounted to 9.14 nM.

Regarding `Cc1noc([C@@H]2COCCN2c2nc3nc(-c4n[nH]c(=O)o4)nc(-c4cccc(Cl)c4)c3n2C[C@H]2CC[C@H](C)CC2)n1` [Example 16.121, 5-{6-(3-chlorophenyl)-7-[(trans-4-methylcyclohexyl)methyl]-8-[(3S)-3-(3-methyl-1,2,4-oxadiazol-5-yl)morpholin-4-yl]-7H-purin-2-yl}-1,3,4-oxadiazol-2(3H)-one], the IC50 was 9.18 nM.

For the compound `C[C@@H]1OCCN(c2nc3nc(-c4noc(=O)[nH]4)nc(-c4cccc(Cl)c4)c3n2C[C@H]2CC[C@H](C)CC2)[C@@H]1c1ccccc1` [Example 16.126, 3-{6-(3-chlorophenyl)-7-[(trans-4-methylcyclohexyl)methyl]-8-[(2S,3R)-2-methyl-3-phenylmorpholin-4-yl]-7H-purin-2-yl}-1,2,4-oxadiazol-5(4H)-one], the IC50 worked out at 85.6 nM.

For `C[C@H]1OCCN(c2nc3nc(-c4noc(=O)[nH]4)nc(-c4cccc(Cl)c4)c3n2C[C@H]2CC[C@H](C)CC2)[C@@H]1c1ccccc1` [Example 16.127, 3-{6-(3-chlorophenyl)-7-[(trans-4-methylcyclohexyl)methyl]-8-[(2R,3R)-2-methyl-3-phenylmorpholin-4-yl]-7H-purin-2-yl}-1,2,4-oxadiazol-5(4H)-one], the IC50 is 1.06 nM.

For the compound `C[C@@H]1OCCN(c2nc3nc(-c4noc(=O)[nH]4)nc(-c4cncc(Cl)c4)c3n2C[C@H]2CC[C@H](C)CC2)[C@@H]1c1ccccc1` [Example 16.129, 3-{6-(5-chloropyridin-3-yl)-7-[(trans-4-methylcyclohexyl)methyl]-8-[(2S,3R)-2-methyl-3-phenylmorpholin-4-yl]-7H-purin-2-yl}-1,2,4-oxadiazol-5(4H)-one], the IC50 is 21.9 nM.

As to `C[C@@H]1OCCN(c2nc3nc(-c4n[nH]c(=O)o4)nc(-c4cncc(Cl)c4)c3n2C[C@H]2CC[C@H](C)CC2)[C@@H]1c1ccccc1` [Example 16.130, 5-{6-(5-chloropyridin-3-yl)-7-[(trans-4-methylcyclohexyl)methyl]-8-[(2S,3R)-2-methyl-3-phenylmorpholin-4-yl]-7H-purin-2-yl}-1,3,4-oxadiazol-2(3H)-one], the half-inhibitory concentration (IC50) turned out to be 28.9 nM.

With `C[C@@H]1OCCN(c2nc3nc(-c4n[nH]c(=O)o4)nc(-c4cccc(Cl)c4)c3n2C[C@H]2CC[C@H](C)CC2)[C@@H]1c1ccccc1` [Example 16.132, 5-{6-(3-chlorophenyl)-7-[(trans-4-methylcyclohexyl)methyl]-8-[(2S,3R)-2-methyl-3-phenylmorpholin-4-yl]-7H-purin-2-yl} - 1,3,4-oxadiazol-2(3H)-one], the IC50 came to 89.5 nM.

In the case of `C[C@H]1OCCN(c2nc3nc(-c4n[nH]c(=O)o4)nc(-c4cncc(Cl)c4)c3n2C[C@H]2CC[C@H](C)CC2)[C@@H]1c1ccccc1` [Example 16.133, 5-{6-(5-chloropyridin-3-yl)-7-[(trans-4-methylcyclohexyl)methyl]-8-[(2R,3R)-2-methyl-3-phenylmorpholin-4-yl]-7H -purin-2-yl}-1,3,4-oxadiazol-2(3H)-one], the IC50 was 0.569 nM.

As to `C[C@H]1OCCN(c2nc3nc(-c4noc(=O)[nH]4)nc(-c4cncc(Cl)c4)c3n2C[C@H]2CC[C@H](C)CC2)[C@@H]1c1ccccc1` [Example 16.135, 3-{6-(5-chloropyridin-3-yl)-7-[(trans-4-methylcyclohexyl)methyl]-8-[(2R,3R)-2-methyl-3-phenylmorpholin-4-yl]-7H-purin-2-yl}-1,2,4-oxadiazol-5(4H)-one], the IC50 stood at 0.504 nM.
